Assays:
[1] = molecular target: T1, P450 2A13 (Homo sapiens, UniProt Q16696); test: Oxidation by P450 2A13 bicistronic membranes, HPLC; details: for metabolism (HPLC): product peaks only with NADPH-generating system; for Formation of oxygenated products on LC-MS analysis: results not shown
T1 sequence (Q16696 1-494): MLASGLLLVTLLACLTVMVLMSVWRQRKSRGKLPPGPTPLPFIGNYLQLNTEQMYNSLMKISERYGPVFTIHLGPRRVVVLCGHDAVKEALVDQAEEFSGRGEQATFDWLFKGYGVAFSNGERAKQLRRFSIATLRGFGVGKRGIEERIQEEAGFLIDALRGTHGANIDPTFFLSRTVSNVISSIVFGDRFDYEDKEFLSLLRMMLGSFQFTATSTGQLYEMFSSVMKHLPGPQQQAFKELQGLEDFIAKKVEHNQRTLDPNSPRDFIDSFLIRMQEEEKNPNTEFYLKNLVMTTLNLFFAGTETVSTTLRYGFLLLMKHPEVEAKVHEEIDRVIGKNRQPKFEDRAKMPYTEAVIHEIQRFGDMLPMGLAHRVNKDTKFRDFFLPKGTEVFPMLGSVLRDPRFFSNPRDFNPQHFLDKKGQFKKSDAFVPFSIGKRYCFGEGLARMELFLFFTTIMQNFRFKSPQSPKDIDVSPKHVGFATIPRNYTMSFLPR

[2] = molecular target: T2, P450 2A6 (Homo sapiens, UniProt P11509); test: Oxidation by P450 2A6 bicistronic membranes, HPLC; details: product peaks only with NADPH-generating system
T2 sequence (P11509 1-494): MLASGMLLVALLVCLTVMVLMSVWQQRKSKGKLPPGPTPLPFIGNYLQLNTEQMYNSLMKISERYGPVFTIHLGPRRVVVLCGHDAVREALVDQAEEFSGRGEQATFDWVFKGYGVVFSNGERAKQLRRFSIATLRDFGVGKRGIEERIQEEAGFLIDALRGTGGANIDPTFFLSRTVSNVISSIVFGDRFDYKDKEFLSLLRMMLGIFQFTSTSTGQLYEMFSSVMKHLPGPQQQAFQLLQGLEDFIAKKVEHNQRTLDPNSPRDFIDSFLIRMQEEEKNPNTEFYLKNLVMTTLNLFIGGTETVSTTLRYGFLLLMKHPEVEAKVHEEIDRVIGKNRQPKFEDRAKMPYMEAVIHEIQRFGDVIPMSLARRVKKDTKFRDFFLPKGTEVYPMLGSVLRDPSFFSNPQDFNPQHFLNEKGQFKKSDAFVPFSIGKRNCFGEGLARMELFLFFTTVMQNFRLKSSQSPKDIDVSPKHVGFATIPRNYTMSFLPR

[3] = molecular target: T2, P450 2A6; test: Spectral binding titration; details: P450 2A6 1.0 μM, pH 7.4; means and S.E.
[4] = molecular target: T3, P450 1A1 (Homo sapiens, UniProt P04798); test: 7-Ethoxyresorufin O-deethylation by P450 1A1
T3 sequence (P04798 1-512): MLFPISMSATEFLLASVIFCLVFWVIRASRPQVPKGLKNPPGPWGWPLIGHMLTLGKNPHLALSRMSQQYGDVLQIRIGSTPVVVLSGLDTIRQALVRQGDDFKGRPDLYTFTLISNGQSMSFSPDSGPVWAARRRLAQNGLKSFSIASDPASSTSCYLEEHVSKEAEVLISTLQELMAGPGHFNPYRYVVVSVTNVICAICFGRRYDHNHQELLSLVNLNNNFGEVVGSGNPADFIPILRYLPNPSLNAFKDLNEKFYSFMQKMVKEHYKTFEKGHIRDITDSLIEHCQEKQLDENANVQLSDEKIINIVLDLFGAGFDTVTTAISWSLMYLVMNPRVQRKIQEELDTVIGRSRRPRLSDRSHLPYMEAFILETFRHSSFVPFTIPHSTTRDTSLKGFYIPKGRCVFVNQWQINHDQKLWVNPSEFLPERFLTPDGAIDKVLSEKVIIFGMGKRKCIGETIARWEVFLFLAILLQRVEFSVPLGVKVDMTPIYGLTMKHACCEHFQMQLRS

[5] = molecular target: T4, P450 1A2 (Homo sapiens, UniProt P05177); test: 7-Ethoxyresorufin O-deethylation by P450 1A2
T4 sequence (P05177 1-516): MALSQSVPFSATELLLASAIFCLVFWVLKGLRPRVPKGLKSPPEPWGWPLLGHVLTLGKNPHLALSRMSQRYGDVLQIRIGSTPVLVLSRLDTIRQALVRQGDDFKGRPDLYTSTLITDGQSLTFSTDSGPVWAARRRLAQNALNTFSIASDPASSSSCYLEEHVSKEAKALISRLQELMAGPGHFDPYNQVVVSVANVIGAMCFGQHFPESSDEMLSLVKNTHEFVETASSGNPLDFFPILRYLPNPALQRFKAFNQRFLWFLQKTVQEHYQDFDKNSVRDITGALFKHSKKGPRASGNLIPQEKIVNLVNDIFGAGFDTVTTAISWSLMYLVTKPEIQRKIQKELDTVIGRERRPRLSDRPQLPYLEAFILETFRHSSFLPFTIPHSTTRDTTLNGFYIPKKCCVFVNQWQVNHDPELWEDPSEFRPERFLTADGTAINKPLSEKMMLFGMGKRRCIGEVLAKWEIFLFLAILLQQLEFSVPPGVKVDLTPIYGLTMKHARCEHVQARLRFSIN

[6] = molecular target: T5, P450 1B1 (Homo sapiens, UniProt Q16678, L432V); test: 7-Ethoxyresorufin O-deethylation by P450 1B1
T5 sequence (Q16678 1-543 L432V): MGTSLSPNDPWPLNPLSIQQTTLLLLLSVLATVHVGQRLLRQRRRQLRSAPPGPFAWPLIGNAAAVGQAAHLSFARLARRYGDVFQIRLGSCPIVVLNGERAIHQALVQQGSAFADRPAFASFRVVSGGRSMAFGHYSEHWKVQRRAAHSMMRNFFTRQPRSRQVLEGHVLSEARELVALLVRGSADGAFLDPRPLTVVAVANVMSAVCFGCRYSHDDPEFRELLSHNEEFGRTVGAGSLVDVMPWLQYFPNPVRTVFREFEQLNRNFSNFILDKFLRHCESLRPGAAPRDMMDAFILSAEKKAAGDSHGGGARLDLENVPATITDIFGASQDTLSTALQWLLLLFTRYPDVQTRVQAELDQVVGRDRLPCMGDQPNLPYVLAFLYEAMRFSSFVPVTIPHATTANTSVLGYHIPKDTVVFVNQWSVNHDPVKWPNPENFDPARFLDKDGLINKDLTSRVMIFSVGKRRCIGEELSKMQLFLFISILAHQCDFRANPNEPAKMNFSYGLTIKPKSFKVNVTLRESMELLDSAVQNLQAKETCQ

[7] = molecular target: T4, P450 1A2; test: Oxidation by P450 1A2 bicistronic membranes, HPLC; details: Figure 5
[8] = molecular target: T6, P450 1B1 (1B1.3, L432V) (Homo sapiens, UniProt Q16678, L432V); test: Oxidation by P450 1B1 bicistronic membranes, HPLC; details: P450 1B1.3; Figure 5
T6 sequence (Q16678 1-543 L432V): T5 sequence (Q16678 1-543 L432V)

[9] = molecular target: T1, P450 2A13; test: Spectral binding titration; details: P450 2A13
[10] = tested on: P450 2A13; test: Spectral binding titration; set-up: species or system human; details: P450 2A13 vs P450 2A6

SMILES | metabolism (HPLC) [1] | metabolism (HPLC) [2] | further results
C#CCOCc1ccccc1-c1ccccc1 [2BMPE, 2-biphenyl methyl propargyl ether] | not detected | – | –
C#Cc1ccc2ccc3ccccc3c2c1 [3EPh, 3-ethynylphenanthrene] | yes | yes | Formation of oxygenated products on LC-MS analysis [1]: formation of oxygenated products
C#CCOCc1ccc(-c2ccccc2)cc1 [4BMPE, 4-biphenyl methyl propargyl ether] | not detected | – | –
CC#Cc1ccc2ccc3ccccc3c2c1 [3PPh, 3-(1-propynyl)phenanthrene] | yes | – | Type I spectra Ks (spectral dissociation constant) [3]: ND (10 μM)
CCOc1ccc2nc3ccc(=O)cc-3oc2c1 [7-ethoxyresorufin] | – | – | Catalytic activity, 7-ethoxyresorufin O-deethylation (nmol product formed/min/nmol P450) [4]: 35 min⁻¹; Catalytic activity, 7-ethoxyresorufin O-deethylation (nmol product formed/min/nmol P450) [5]: 3.2 min⁻¹; Catalytic activity, 7-ethoxyresorufin O-deethylation (nmol product formed/min/nmol P450) [6]: 14 min⁻¹
C#CCOc1ccccc1-c1ccccc1 [2BPE, 2-biphenyl propargyl ether] | yes | – | –
C#CCOc1ccc(-c2ccccc2)cc1 [4BPE, 4-biphenyl propargyl ether] | yes | yes | –
C#Cc1ccc(-c2ccccc2)cc1 [4EB, 4-ethynylbiphenyl] | not detected | not detected | –
C#CCOc1ccc(-c2ccc(OCC#C)cc2)cc1 [44BDPE, 4,4′-biphenyl dipropargyl ether] | not detected | not detected | –
C#Cc1ccc2c(ccc3ccccc32)c1 [2EPh, 2-ethynylphenanthrene] | yes | yes | Oxidation (product formation on HPLC) [7]: oxidized 2EPh at lower levels than P450s 2A13 and 2A6; Oxidation (product formation on HPLC) [8]: oxidized 2EPh at lower levels than P450s 2A13 and 2A6; Formation of oxygenated products on LC-MS analysis [1]: formation of oxygenated products
C#Cc1cc2ccccc2c2ccccc12 [9EPh, 9-ethynylphenanthrene] | not detected | – | Type I spectra Ks (spectral dissociation constant) [3]: ND (10 μM)
c1ccc2c(c1)ccc1ccccc12 [phenanthrene] | yes | yes | ΔAmax of Type I binding spectral change [9]: 0.063
C#CCOc1ccccc1-c1ccccc1OCC#C [22BDPE, 2,2′-biphenyl dipropagyl ether] | not detected | – | –
CC#Cc1ccc2c(ccc3ccccc32)c1 [2PPh, 2-(1-propynyl)phenanthrene] | yes | yes | –
CCC#Cc1ccc(-c2ccccc2)cc1 [4BuB, 4-butynylbiphenyl] | not detected | – | –
C#Cc1ccc2ccccc2c1 [2EN, 2-ethynylnaphthalene] | yes | yes | ΔAmax/Ks ratio with P450 2A13 relative to that with P450 2A6 [10]: about 10 fold
c1ccc(-c2ccccc2)cc1 [biphenyl] | yes | yes | ΔAmax of Type I binding spectral change [9]: 0.045
CC#Cc1cc2ccccc2c2ccccc12 [9PPh, 9-(1-propynyl)phenanthrene] | not detected | – | –
CC#Cc1ccc(-c2ccccc2)cc1 [4PB, 4-propynylbiphenyl] | not detected | – | –
